Measurements from the NIST ThermoML archive (doi:10.1021/acs.jced.5b00737).
± gives the expanded uncertainty stated by the source.

Conditions: 298.15 K; Liquid; Gas chromatography

SMILES	vapor or sublimation pressure [kPa]
c1ccc(C2(N3CCCCC3)CCCCC2)cc1 [1-(1-phenylcyclohexyl)piperidine]	3e-05 ± 1.2e-05
CC(Cc1ccc(C(C)(C)C)cc1)CN1CCCCC1 (configuration not stated) [1-(3-(4-(tert-butyl)phenyl)-2-methylpropyl)piperidine]	1.6e-05 ± 8e-06
